# pEC50, pIC50: −log10 of the molar value.
# Key:
# [1] = target: T1, Stimulator of interferon genes protein (Mus musculus, UniProt Q3TBT3); experiment: Displacement of 5-FAM-labeled diABZI tracer from N-terminal 6xHis-tagged wild-type mouse STING CTD extracted from Escherichia coli BL21(DE3) incubated for 30 mins by competitive binding based fluorescence polarization assay
# T1 sequence (Q3TBT3 whole entry): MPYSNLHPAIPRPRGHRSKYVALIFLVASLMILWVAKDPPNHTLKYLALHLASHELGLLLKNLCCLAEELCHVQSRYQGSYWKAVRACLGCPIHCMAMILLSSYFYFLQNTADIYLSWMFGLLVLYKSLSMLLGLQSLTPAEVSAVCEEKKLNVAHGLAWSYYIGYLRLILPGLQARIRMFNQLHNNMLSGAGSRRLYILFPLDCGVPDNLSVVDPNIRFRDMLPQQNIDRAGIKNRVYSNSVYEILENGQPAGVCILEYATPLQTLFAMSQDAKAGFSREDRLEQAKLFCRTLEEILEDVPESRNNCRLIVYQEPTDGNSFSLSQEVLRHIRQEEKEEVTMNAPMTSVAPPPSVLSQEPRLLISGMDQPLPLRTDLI
# [2] = target: T1, Stimulator of interferon genes protein; experiment: Agonist activity at STING in mouse RAW-Lucia ISG cells harbouring SEAP reporter gene assessed as activation of cGAS-STING signaling pathway incubated for 24 hrs by QUANTI-Blue reagent based analysis
# [3] = target: T1, Stimulator of interferon genes protein; experiment: Agonist activity at STING in mouse RAW-Lucia ISG-KO-STING cells harbouring SEAP reporter gene assessed as activation of cGAS-STING signaling pathway incubated for 24 hrs by QUANTI-Blue reagent based analysis
# [4] = Clearance in female C57BL/6 mouse at 10 mg/kg, iv measured up to 24 hrs by LC-MS/MS analysis; conditions: in vivo
# [5] = tested on: B16-F10; experiment: Antitumor activity against mouse B16-F10 cells allografted in female C57BL/6 mouse assessed as tumor growth inhibition at 30 mg/kg, iv qd relative to control; conditions: B16-F10, read-out: TGI
# [6] = target: T2, Stimulator of interferon genes protein (Homo sapiens, UniProt Q86WV6); experiment: Displacement of 5-FAM-labeled diABZI tracer from N-terminal 6xHis-tagged human STING R232H mutant CTD extracted from Escherichia coli BL21(DE3) incubated for 30 mins by competitive binding based fluorescence polarization assay
# [7] = target: T2, Stimulator of interferon genes protein; experiment: Displacement of 5-FAM-labeled diABZI tracer from N-terminal 6xHis-tagged wild-type human STING CTD extracted from Escherichia coli BL21(DE3) incubated for 30 mins by competitive binding based fluorescence polarization assay
# [8] = target: Stimulator of interferon genes protein (Homo sapiens, UniProt Q86WV6, G230A/R293Q)
# [9] = target: Stimulator of interferon genes protein (Homo sapiens, UniProt Q86WV6, R293Q)
# Chain of Stimulator of interferon genes protein (Homo sapiens, UniProt Q86WV6, R293Q) (Q86WV6 whole entry R293Q): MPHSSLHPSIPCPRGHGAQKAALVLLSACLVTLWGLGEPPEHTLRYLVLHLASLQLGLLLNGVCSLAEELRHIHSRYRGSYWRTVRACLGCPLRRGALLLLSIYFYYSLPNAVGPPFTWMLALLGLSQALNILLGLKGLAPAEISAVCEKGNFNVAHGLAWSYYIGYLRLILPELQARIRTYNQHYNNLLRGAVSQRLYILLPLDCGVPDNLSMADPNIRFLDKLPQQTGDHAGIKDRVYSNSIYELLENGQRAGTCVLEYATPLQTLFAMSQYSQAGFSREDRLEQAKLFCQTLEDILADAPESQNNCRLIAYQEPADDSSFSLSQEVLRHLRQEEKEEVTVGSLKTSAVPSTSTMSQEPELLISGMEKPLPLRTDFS
# T2 sequence (Q86WV6 whole entry): as the sequence (Q86WV6 whole entry R293Q) above, with Q293R counted along it
# Chain of Stimulator of interferon genes protein (Homo sapiens, UniProt Q86WV6, G230A/R293Q) (Q86WV6 whole entry G230A/R293Q): as the sequence (Q86WV6 whole entry R293Q) above, with G230A counted along it
SMILES,pIC50 [1],pEC50 [2],pEC50 [3],clearance at 24 h [4] [mL/min/kg],inhibition in vivo at 30 mg/kg [5] [%],pIC50 [6],pIC50 [7],pIC50 [8],pIC50 [9]
O=C(Nc1cc(F)c(F)cc1C(=O)O)c1ccc(-n2ccnc2)nn1,5.73,< 4.00,< 4.00,123,52.4,,,,
O=C(Nc1cc(Br)c(F)cc1C(=O)O)c1ccc(-n2cnc(F)c2)nn1,5.58,4.61,< 4.00,,,5.87,5.83,6.01,5.84
O=C(Nc1cc(Cl)c(F)cc1C(=O)O)c1ccc(-n2cnc(F)c2)nn1,5.60,4.33,< 4.00,,,5.76,5.74,6.03,5.72

# — ChEMBL document CHEMBL6177999, “Discovery of 3-(Fluoro-imidazolyl)pyridazine Derivatives as Potent STING Agonists with Antitumor Activity” (J Med Chem, 2025)
